The values below are quoted from earlier work in US20130079342A1, “HETEROCYCLIC COMPOUNDS AND THEIR USES” (priority 2011, published 2013).

Series [1] deals with rheumatoid arthritis model. The conditions noted are these: in vivo.
In series [2] the test system is systemic lupus erythematosis model. The conditions noted are these: in vivo.
Series [3] relates to ovalbumin-induced airway inflammation.
The next series has as its target T1, p110δ (Homo sapiens, UniProt O00329).
T1 sequence (O00329 1-1044): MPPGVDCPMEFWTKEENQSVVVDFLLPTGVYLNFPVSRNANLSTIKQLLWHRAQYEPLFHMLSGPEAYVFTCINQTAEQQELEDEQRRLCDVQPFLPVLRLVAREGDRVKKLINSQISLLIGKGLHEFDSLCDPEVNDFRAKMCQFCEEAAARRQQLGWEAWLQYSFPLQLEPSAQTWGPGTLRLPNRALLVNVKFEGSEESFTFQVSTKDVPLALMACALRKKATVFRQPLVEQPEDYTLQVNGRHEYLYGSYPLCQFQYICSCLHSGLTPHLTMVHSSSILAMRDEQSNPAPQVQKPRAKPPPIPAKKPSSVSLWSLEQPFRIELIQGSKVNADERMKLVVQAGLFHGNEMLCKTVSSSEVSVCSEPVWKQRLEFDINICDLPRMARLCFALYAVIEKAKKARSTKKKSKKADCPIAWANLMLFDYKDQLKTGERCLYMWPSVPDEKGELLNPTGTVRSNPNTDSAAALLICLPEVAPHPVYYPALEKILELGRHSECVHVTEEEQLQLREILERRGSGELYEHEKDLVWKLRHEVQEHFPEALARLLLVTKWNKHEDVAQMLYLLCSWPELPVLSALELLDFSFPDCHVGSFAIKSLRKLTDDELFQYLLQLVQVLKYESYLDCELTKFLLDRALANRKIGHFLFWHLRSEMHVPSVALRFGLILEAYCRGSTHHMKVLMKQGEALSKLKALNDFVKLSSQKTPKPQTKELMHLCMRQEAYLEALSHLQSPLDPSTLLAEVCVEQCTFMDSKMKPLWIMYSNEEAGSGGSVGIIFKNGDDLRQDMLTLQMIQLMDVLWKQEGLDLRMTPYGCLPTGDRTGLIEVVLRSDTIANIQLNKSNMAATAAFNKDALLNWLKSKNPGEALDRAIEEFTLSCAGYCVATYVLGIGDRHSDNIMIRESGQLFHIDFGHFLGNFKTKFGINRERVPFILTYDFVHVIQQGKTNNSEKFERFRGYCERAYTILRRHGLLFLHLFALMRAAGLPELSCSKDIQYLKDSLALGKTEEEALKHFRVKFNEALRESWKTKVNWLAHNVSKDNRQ

`O=C1NC(=O)/C(=C\c2ccc3nccnc3c2)S1` [AS 605240]: in series [1], the “efficacy in a mouse model of rheumatoid arthritis” value was “efficacious”. For the same molecule, the “onset of disease in a model of systemic lupus erythematosis” value in series [2] was “delay onset of disease”.

Turning to `Cc1ccccc1-n1c(Cn2cnc3c(N)ncnc32)nc2cccc(C)c2c1=O` [IC87114], the “activity against any protein kinases tested” value in the series with protein kinases is given as “no activity”. Also, the “inflammation and disease in a murine model of asthma” value in series [3] was “significantly ameliorate inflammation and disease”. Also, the “inhibition of p110δ” value at p110δ is on record as “high nanomolar range (triple digit)”.
